In US20220324815A1, “2-PHENOXY-PYRIMIDINE DERIVATIVES AS HERBICIDAL COMPOUNDS” (SYNGENTA CROP PROTECTION AG, priority 2019, published 2022):

Assays:
Assay type in all cases: in vivo
Details in all cases: 250 g/ha unless otherwise stated, evaluated after 13 days, five-point scale
[1] = test system: Echinochloa crus-galli (ECHCG); experiment: Test 1 glasshouse herbicide test, pre-emergence application (Table B2)
Outline: (§1)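 Pots sown in standard soil; sprayed 1 day (pre-emergence) or 8 days (post-emergence) after sowing at 250 g/ha unless stated, in acetone/water (50:50) with 0.5% Tween 20. Glasshouse 24/16 °C, 14 h light, 65% humidity; damage scored at 13 days on a 1–5 scale (5=81–100%, 1=0–20%).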

[2] = test system: Ipomoea hederacea (IPOHE); experiment: as above
Outline: as §1

[3] = test system: Amaranthus retoflexus (AMARE); experiment: as above
Outline: as §1

[4] = test system: Setaria faberi (SETFA); experiment: as above
Outline: as §1

[5] = test system: Echinochloa crus-galli (ECHCG); experiment: Test 1 glasshouse herbicide test, post-emergence application (Table B1)
Outline: as §1

[6] = test system: Ipomoea hederacea (IPOHE); experiment: as above
Outline: as §1

[7] = test system: Amaranthus retoflexus (AMARE); experiment: as above
Outline: as §1

[8] = test system: Setaria faberi (SETFA); experiment: as above
Outline: as §1

| SMILES | % phytotoxicity ECHCG, pre-emergence application [1] | % phytotoxicity IPOHE, pre-emergence application [2] | % phytotoxicity AMARE, pre-emergence application [3] | % phytotoxicity SETFA, pre-emergence application [4] | % phytotoxicity ECHCG, post-emergence application [5] | % phytotoxicity IPOHE, post-emergence application [6] | % phytotoxicity AMARE, post-emergence application [7] | % phytotoxicity SETFA, post-emergence application [8] |
| --- | --- | --- | --- | --- | --- | --- | --- | --- |
| N#Cc1cccc(Oc2ncc(Cl)cn2)c1[S+]([O-])CCCC(F)F (stereo not shown) [Compound A101] | 5 (5=81 to 100%) | 5 (5=81 to 100%) | 5 (5=81 to 100%) | 5 (5=81 to 100%) | 4 (4=61 to 80%) | 4 (4=61 to 80%) | 5 (5=81 to 100%) | 4 (4=61 to 80%) |
| N#Cc1cccc(Oc2ncc(Cl)cn2)c1S(=O)(=O)CCCC(F)F [Compound A102] | 5 (5=81 to 100%) | 5 (5=81 to 100%) | 5 (5=81 to 100%) | 5 (5=81 to 100%) | 4 (4=61 to 80%) | 4 (4=61 to 80%) | 5 (5=81 to 100%) | 4 (4=61 to 80%) |
| O=S(=O)(CCCC(F)F)c1c(Cl)cccc1Oc1ncc(Cl)cn1 [Compound A103] | 2 (2=21 to 40%) | 4 (4=61 to 80%) | 4 (4=61 to 80%) | 2 (2=21 to 40%) | 1 (1=0 to 20%) | 2 (2=21 to 40%) | 4 (4=61 to 80%) | 1 (1=0 to 20%) |
| [O-][S+](CCCC(F)F)c1c(Cl)cccc1Oc1ncc(Cl)cn1 (stereo not shown) [Compound A104] | 5 (5=81 to 100%) | 5 (5=81 to 100%) | 5 (5=81 to 100%) | 5 (5=81 to 100%) | 5 (5=81 to 100%) | 5 (5=81 to 100%) | 5 (5=81 to 100%) | 5 (5=81 to 100%) |
| FC(F)CCCSc1c(Cl)cccc1Oc1ncc(Cl)cn1 [Compound A105, 5-chloro-2-[3-chloro-2-(4,4-difluorobutylsulfanyl)phenoxy]pyrimidine] | 5 (5=81 to 100%) | 4 (4=61 to 80%) | 5 (5=81 to 100%) | 5 (5=81 to 100%) | 5 (5=81 to 100%) | 4 (4=61 to 80%) | 5 (5=81 to 100%) | 5 (5=81 to 100%) |
| N#Cc1cccc(Oc2ncc(Cl)cn2)c1SCCOC(F)(F)F [Compound A106] | 5 (5=81 to 100%) | 2 (2=21 to 40%) | 5 (5=81 to 100%) | 5 (5=81 to 100%) | 5 (5=81 to 100%) | 3 (3=41 to 60%) | 5 (5=81 to 100%) | 4 (4=61 to 80%) |
| N#Cc1cccc(Oc2ncc(Cl)cn2)c1SCCOCC(F)(F)F [Compound A107] | 5 (5=81 to 100%) | 3 (3=41 to 60%) | 5 (5=81 to 100%) | 5 (5=81 to 100%) | 5 (5=81 to 100%) | 2 (2=21 to 40%) | 5 (5=81 to 100%) | 4 (4=61 to 80%) |
| N#Cc1cccc(Oc2ncc(Cl)cn2)c1S(=O)(=O)CCOCC(F)(F)F [Compound A108] | 1 (1=0 to 20%) | 1 (1=0 to 20%) | 5 (5=81 to 100%) | 1 (1=0 to 20%) | 1 (1=0 to 20%) | 2 (2=21 to 40%) | 4 (4=61 to 80%) | 1 (1=0 to 20%) |
| COc1cnc(Oc2cccc(C#N)c2S(=O)(=O)CCCC(F)(F)F)nc1 [Compound A112] | 1 (1=0 to 20%) | 3 (3=41 to 60%) | 3 (3=41 to 60%) | 1 (1=0 to 20%) | 1 (1=0 to 20%) | 2 (2=21 to 40%) | 2 (2=21 to 40%) | 1 (1=0 to 20%) |
| COc1cnc(Oc2cccc(C#N)c2SCCCC(F)(F)F)nc1 [Compound A113] | 4 (4=61 to 80%) | 3 (3=41 to 60%) | 5 (5=81 to 100%) | 2 (2=21 to 40%) | 3 (3=41 to 60%) | 3 (3=41 to 60%) | 5 (5=81 to 100%) | 2 (2=21 to 40%) |
| Cc1cnc(Oc2cccc(C#N)c2SCCCC(F)(F)F)nc1 [Compound A114] | 4 (4=61 to 80%) | 4 (4=61 to 80%) | 5 (5=81 to 100%) | 4 (4=61 to 80%) | 4 (4=61 to 80%) | 4 (4=61 to 80%) | 3 (3=41 to 60%) | 3 (3=41 to 60%) |
| Cc1cnc(Oc2cccc(C#N)c2S(=O)(=O)CCCC(F)(F)F)nc1 [Compound A115] | 4 (4=61 to 80%) | 5 (5=81 to 100%) | 5 (5=81 to 100%) | 3 (3=41 to 60%) | 4 (4=61 to 80%) | 4 (4=61 to 80%) | 4 (4=61 to 80%) | 3 (3=41 to 60%) |
| N#Cc1cccc(Oc2ncc(Cl)cn2)c1SCCCOC(F)(F)F [Compound A116, 3-(5-chloropyrimidin-2-yl)oxy-2-[3-(trifluoromethoxy)propylsulfanyl]benzonitrile] | 5 (5=81 to 100%) | 5 (5=81 to 100%) | 5 (5=81 to 100%) | 5 (5=81 to 100%) | 4 (4=61 to 80%) | 4 (4=61 to 80%) | 5 (5=81 to 100%) | 4 (4=61 to 80%) |
| N#Cc1cccc(Oc2ncc(Cl)cn2)c1S(=O)(=O)CCCOC(F)(F)F [Compound A117] | 4 (4=61 to 80%) | 5 (5=81 to 100%) | 5 (5=81 to 100%) | 5 (5=81 to 100%) | 4 (4=61 to 80%) | 3 (3=41 to 60%) | 5 (5=81 to 100%) | 4 (4=61 to 80%) |
